The test has as its target SpCas9 (Streptococcus pyogenes serotype M1, UniProt Q99ZW2). As to the kind of experiment: eGFP disruption assay, SpCas9, U2OS.eGFP.PEST cells. The note with it: for Normalized Z rep1 / Z score Rep1: replicate 1; for SpCas9 eGFP disruption Rep1: replicate 1, raw readout; for Normalized Z rep2 / Z socre Rep2: replicate 2; for SpCas9 eGFP disruption Rep2: replicate 2, raw readout. The test is classed as cell-based. In a few lines:
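Rescue of eGFP signal lost through Cas9-induced NHEJ indels serves as the inhibition read-out, after 24 h compound exposure (20 μM for hits, variable for dose-response). Editing was delivered by nucleofection into U2OS.eGFP.PEST cells as SpCas9/gRNA plasmids (300/30 ng) or RNP (10/12 pmol). Toxic and autofluorescent compounds were excluded.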

Setting [1] is: Cas9 = lower control, Ctrl = upper control.
Setting [2] is: normalized, lower control about 0, upper control about 1.

Sequence of SpCas9 (Q99ZW2 whole entry): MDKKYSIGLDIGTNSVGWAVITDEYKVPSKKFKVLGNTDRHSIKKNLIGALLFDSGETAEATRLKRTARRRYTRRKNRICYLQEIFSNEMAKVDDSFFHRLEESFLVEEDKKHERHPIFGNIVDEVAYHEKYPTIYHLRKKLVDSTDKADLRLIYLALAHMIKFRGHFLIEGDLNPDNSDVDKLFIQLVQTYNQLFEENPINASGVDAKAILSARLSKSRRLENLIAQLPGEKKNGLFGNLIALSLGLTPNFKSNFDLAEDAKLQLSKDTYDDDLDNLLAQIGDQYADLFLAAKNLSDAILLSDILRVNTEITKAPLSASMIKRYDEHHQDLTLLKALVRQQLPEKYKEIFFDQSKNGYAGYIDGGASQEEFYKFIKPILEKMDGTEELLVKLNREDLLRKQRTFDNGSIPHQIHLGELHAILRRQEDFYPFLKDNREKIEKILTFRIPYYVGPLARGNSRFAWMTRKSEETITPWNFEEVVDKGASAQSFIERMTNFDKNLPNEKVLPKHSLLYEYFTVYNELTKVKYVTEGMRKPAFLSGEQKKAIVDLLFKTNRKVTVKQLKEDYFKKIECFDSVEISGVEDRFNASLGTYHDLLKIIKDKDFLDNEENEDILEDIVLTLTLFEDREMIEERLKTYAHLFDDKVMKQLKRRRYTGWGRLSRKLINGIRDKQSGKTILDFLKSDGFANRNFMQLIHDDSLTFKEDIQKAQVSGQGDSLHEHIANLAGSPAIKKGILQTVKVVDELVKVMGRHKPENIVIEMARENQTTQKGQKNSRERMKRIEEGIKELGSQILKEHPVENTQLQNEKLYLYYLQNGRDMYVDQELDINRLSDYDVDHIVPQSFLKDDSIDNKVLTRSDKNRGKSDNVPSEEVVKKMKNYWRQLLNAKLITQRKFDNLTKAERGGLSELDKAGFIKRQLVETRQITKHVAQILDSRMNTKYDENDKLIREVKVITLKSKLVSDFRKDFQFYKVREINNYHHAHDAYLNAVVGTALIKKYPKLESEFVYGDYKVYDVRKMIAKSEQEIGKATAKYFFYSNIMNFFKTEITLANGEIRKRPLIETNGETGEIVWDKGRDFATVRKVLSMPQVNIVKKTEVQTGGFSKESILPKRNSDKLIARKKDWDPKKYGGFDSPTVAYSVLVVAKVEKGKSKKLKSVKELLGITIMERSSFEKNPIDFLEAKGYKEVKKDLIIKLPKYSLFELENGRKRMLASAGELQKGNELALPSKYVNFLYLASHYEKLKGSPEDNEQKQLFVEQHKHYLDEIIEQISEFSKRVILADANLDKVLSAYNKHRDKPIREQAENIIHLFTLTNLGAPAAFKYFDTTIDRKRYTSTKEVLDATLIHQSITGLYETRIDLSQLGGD

Regarding `O=C(CCS(=O)(=O)c1ccc(Cl)cc1)Nc1nc(-c2ccncc2)cs1` [BRD7586], the EC50 worked out at 5.55 µM (EC50 in eGFP disruption assay, U2OS.eGFP.PEST, SpCas9 plasmid and sgRNA plasmid, 0.3 uM to 20 uM, 24 h (FIG. 44A/C)); 6.2 ± 1.2 µM (EC50 in the eGFP disruption assay, from three independent experiments). The “Potency relative to BRD0539” value (more potent than BRD0539) was approximately 2 fold.
Regarding `c1ccc(Cc2nn3c(-c4cccnc4)nnc3s2)cc1` [Compound D727-0066], the “Normalized Z rep1” value is recorded as −0.11, the “Z score Rep1” value is on record as −0.78, the “SpCas9 eGFP disruption Rep1” value worked out at 64.43 and the “Normalized Z rep2” value was −0.15. The “Z socre Rep2” value is recorded as −1.42 and the “SpCas9 eGFP disruption Rep2” value was determined as 58.807.
Regarding `Cc1nc2ccccc2n1Cc1nnc2n1N=C(N)CS2` [Compound D727-0339], the “Normalized Z rep1” value is listed as −0.25, the “Z score Rep1” value was −1.83, the “SpCas9 eGFP disruption Rep1” value is on record as 60.982 and the “Normalized Z rep2” value is listed as −0.15. Besides, the “Z socre Rep2” value is −1.41 and the “SpCas9 eGFP disruption Rep2” value is 58.84.
Take `Cc1ccccc1OCc1nn2c(C(C)C)nnc2s1` [Compound D727-0350]: the “Normalized Z rep1” value is −0.47, the “Z score Rep1” value is recorded as −3.41, the “SpCas9 eGFP disruption Rep1” value was determined as 55.746 and the “Normalized Z rep2” value is given as −0.04. In addition, the “Z socre Rep2” value is on record as −0.36 and the “SpCas9 eGFP disruption Rep2” value came out at 61.985.
With `Cc1ccccc1OCc1nn2c(C(C)(C)C)nnc2s1` [Compound D727-0351], the “Z score Rep1” value is recorded as 0.29 and the “Z socre Rep2” value was 1.32. Moreover, under setting [1], the “SpCas9 eGFP disruption Rep1” value is on record as 67.967 and the “SpCas9 eGFP disruption Rep2” value was determined as 67.06. Under setting [2], the “Normalized Z rep1” value is recorded as 0.04 and the “Normalized Z rep2” value was 0.14.
In the case of `Brc1ccc(OCc2nn3c(-c4ccccn4)nnc3s2)cc1` [Compound D727-0522], the “Normalized Z rep1” value was −0.12, the “Z score Rep1” value is listed as −0.85, the “SpCas9 eGFP disruption Rep1” value worked out at 64.203 and the “Normalized Z rep2” value is given as 0.08. Also, the “Z socre Rep2” value was 0.79 and the “SpCas9 eGFP disruption Rep2” value stood at 65.458.
As to `Fc1ccc(OCc2nn3c(-c4ccccn4)nnc3s2)cc1` [Compound D727-0525], the “Normalized Z rep1” value was −0.49, the “Z score Rep1” value is −3.56, the “SpCas9 eGFP disruption Rep1” value amounted to 55.263 and the “Normalized Z rep2” value is given as −0.39. The “Z socre Rep2” value was −3.59 and the “SpCas9 eGFP disruption Rep2” value is given as 52.257.
With `NC(=O)c1c(NC(=O)COCc2cc(-c3ccc4c(c3)OCO4)on2)sc2c1CCCC2` [Compound E613-0091], the “Normalized Z rep1” value is −0.19, the “Z score Rep1” value is on record as −1.37, the “SpCas9 eGFP disruption Rep1” value stood at 62.484 and the “Normalized Z rep2” value is reported as −0.32. Besides, the “Z socre Rep2” value is listed as −2.94 and the “SpCas9 eGFP disruption Rep2” value came to 54.219.
Take `NS(=O)(=O)c1ccc(CCNC(=O)C2=Cc3sc4c(c3CS2)CCCC4)cc1` [Compound E722-2588]: the “Normalized Z rep1” value is recorded as −0.16, the “Z score Rep1” value was −1.14, the “SpCas9 eGFP disruption Rep1” value is given as 63.246 and the “Normalized Z rep2” value worked out at 0.13. Also, the “Z socre Rep2” value is reported as 1.22 and the “SpCas9 eGFP disruption Rep2” value is on record as 66.773.
In the case of `NC(=O)c1sc(=S)n2c1[nH]c(=O)c1ccc(Cl)cc12` [Compound F083-0067], the “Normalized Z rep1” value is reported as −0.09, the “Z score Rep1” value is −0.66, the “SpCas9 eGFP disruption Rep1” value amounted to 64.842 and the “Normalized Z rep2” value is reported as −0.23. The “Z socre Rep2” value was −2.14 and the “SpCas9 eGFP disruption Rep2” value was 56.626.
For `CCCN1CCN(c2ccc(C(=O)O)cc2NC(=O)c2ccccc2Cl)CC1` [Compound F086-0004], the “Normalized Z rep1” value is −0.17, the “Z score Rep1” value is recorded as −1.20, the “SpCas9 eGFP disruption Rep1” value was determined as 63.051 and the “Normalized Z rep2” value was −0.29. In addition, the “Z socre Rep2” value is −2.70 and the “SpCas9 eGFP disruption Rep2” value was 54.937.
As for `CC(C)NC(=O)CN1CCN(c2ccc(C(=O)O)cc2NC(=O)c2ccccc2Cl)CC1` [Compound F086-0028], the “Normalized Z rep1” value is reported as −0.55, the “Z score Rep1” value was −3.98, the “SpCas9 eGFP disruption Rep1” value was 53.848 and the “Normalized Z rep2” value is given as −0.21. The “Z socre Rep2” value was −1.95 and the “SpCas9 eGFP disruption Rep2” value is reported as 57.208.
With `COCCCNC(=O)CN1CCN(c2ccc(C(=O)O)cc2NC(=O)c2ccccc2Cl)CC1` [Compound F086-0033], the “Normalized Z rep1” value is reported as −0.26, the “Z score Rep1” value is listed as −1.88, the “SpCas9 eGFP disruption Rep1” value was 60.787 and the “Normalized Z rep2” value is −0.24. For the same compound, the “Z socre Rep2” value is −2.23 and the “SpCas9 eGFP disruption Rep2” value was 56.359.
On to `O=C(O)c1ccc(N2CCN(c3ccccn3)CC2)c(NC(=O)c2ccc(Br)cc2)c1` [Compound F086-0619], for which the “Normalized Z rep1” value was −0.11, the “Z score Rep1” value is recorded as −0.82, the “SpCas9 eGFP disruption Rep1” value turned out to be 64.289 and the “Normalized Z rep2” value is listed as −0.20. For the same compound, the “Z socre Rep2” value is given as −1.83 and the “SpCas9 eGFP disruption Rep2” value is 57.556.
`Nc1c(C(=O)N2CCCC2)sc(=S)n1Cc1ccccc1` [Compound F128-0041]: the “Normalized Z rep1” value is −0.05, the “Z score Rep1” value was −0.34, the “SpCas9 eGFP disruption Rep1” value is recorded as 65.885 and the “Normalized Z rep2” value is recorded as −0.15. Besides, the “Z socre Rep2” value is recorded as −1.37 and the “SpCas9 eGFP disruption Rep2” value is on record as 58.95.
`Nc1c(C(=O)N2CCCCC2)sc(=S)n1Cc1ccccc1` [Compound F128-0042]: the “Normalized Z rep1” value is listed as −0.22, the “Z score Rep1” value was −1.57, the “SpCas9 eGFP disruption Rep1” value is 61.817 and the “Normalized Z rep2” value is −0.36. Moreover, the “Z socre Rep2” value was −3.35 and the “SpCas9 eGFP disruption Rep2” value was found to be 52.985.
Regarding `Nc1c(C(=O)NCC2CCCO2)sc(=S)n1-c1ccc(Cl)cc1` (stereo not drawn) [Compound F128-0076], the “Normalized Z rep1” value is listed as −0.08, the “Z score Rep1” value is on record as −0.57, the “SpCas9 eGFP disruption Rep1” value is 65.12 and the “Normalized Z rep2” value is −0.12. Besides, the “Z socre Rep2” value is recorded as −1.11 and the “SpCas9 eGFP disruption Rep2” value is given as 59.748.
On to `CS(=O)(=O)Nc1cnc(N2CCC(C(N)=O)(N3CCCCC3)CC2)c(C(=O)O)c1` [Compound F293-0183], for which the “Normalized Z rep1” value is −0.19, the “Z score Rep1” value is −1.40, the “SpCas9 eGFP disruption Rep1” value is recorded as 62.398 and the “Normalized Z rep2” value is reported as −0.33. The “Z socre Rep2” value was −3.08 and the “SpCas9 eGFP disruption Rep2” value is given as 53.8.
`O=C(O)c1cc(NS(=O)(=O)c2cc(F)ccc2F)cnc1N1CCC(N2CCCCC2)CC1` [Compound F293-0616]: the “Normalized Z rep1” value is −0.36, the “Z score Rep1” value was −2.62, the “SpCas9 eGFP disruption Rep1” value amounted to 58.357 and the “Normalized Z rep2” value is on record as −0.03. The “Z socre Rep2” value is on record as −0.30 and the “SpCas9 eGFP disruption Rep2” value is reported as 62.171.
In the case of `CS(=O)(=O)Nc1cnc(N2CCC(CCN3CCOCC3)CC2)c(C(=O)O)c1` [Compound F293-0898], the “Normalized Z rep1” value is given as −0.44, the “Z score Rep1” value was −3.21, the “SpCas9 eGFP disruption Rep1” value amounted to 56.403 and the “Normalized Z rep2” value was −0.11. Further, the “Z socre Rep2” value was −1.00 and the “SpCas9 eGFP disruption Rep2” value is recorded as 60.078.
Regarding `CN(C)S(=O)(=O)Nc1cnc(N2CCC(CCN3CCCCC3)CC2)c(C(=O)O)c1` [Compound F293-0962], the “Normalized Z rep1” value is on record as −0.18, the “Z score Rep1” value was −1.30, the “SpCas9 eGFP disruption Rep1” value is on record as 62.732 and the “Normalized Z rep2” value is on record as −0.33. The “Z socre Rep2” value is on record as −3.10 and the “SpCas9 eGFP disruption Rep2” value worked out at 53.726.
Take `CCN(Cc1ccccc1)c1ccc(NS(=O)(=O)c2ccc(OC)cc2)cc1C(=O)O` [Compound F294-0003]: the “Normalized Z rep1” value is −0.48, the “Z score Rep1” value is given as −3.46, the “SpCas9 eGFP disruption Rep1” value is 55.595 and the “Normalized Z rep2” value is reported as −0.10. Besides, the “Z socre Rep2” value is −0.96 and the “SpCas9 eGFP disruption Rep2” value came out at 60.198.
In the case of `CN(C)S(=O)(=O)Nc1ccc(N2CCC(C(N)=O)(N3CCCCC3)CC2)c(C(=O)O)c1` [Compound F294-0183], the “Normalized Z rep1” value is −0.33, the “Z score Rep1” value is recorded as −2.37, the “SpCas9 eGFP disruption Rep1” value is recorded as 59.182 and the “Normalized Z rep2” value is on record as −0.30. Further, the “Z socre Rep2” value is recorded as −2.83 and the “SpCas9 eGFP disruption Rep2” value was 54.549.
In the case of `CN(C)S(=O)(=O)Nc1ccc(N2CCC(CCN3CCOCC3)CC2)c(C(=O)O)c1` [Compound F294-0900], the “Normalized Z rep1” value is listed as −0.19, the “Z score Rep1” value is −1.40, the “SpCas9 eGFP disruption Rep1” value amounted to 62.393 and the “Normalized Z rep2” value was −0.24. In addition, the “Z socre Rep2” value was −2.23 and the “SpCas9 eGFP disruption Rep2” value is 56.357.
In the case of `CN(C)S(=O)(=O)Nc1ccc(N2CCCC(CN3CCCC3)C2)c(C(=O)O)c1` (stereo not drawn) [Compound F294-0983], the “Normalized Z rep1” value is −0.40, the “Z score Rep1” value is −2.90, the “SpCas9 eGFP disruption Rep1” value is 57.443 and the “Normalized Z rep2” value is given as −0.35. The “Z socre Rep2” value is listed as −3.23 and the “SpCas9 eGFP disruption Rep2” value is recorded as 53.339.

By EC50 is commonly meant the concentration at which the effect is half-maximal.
